Data taken from US20060229305A1, “Tetrahydronaphthalene derivatives, process for their production and their use as anti-inflammatory agents” (priority 2005, published 2006).

How the values were obtained:
[1] = biological target: T1, glucocorticoid receptor (GR) (Homo sapiens, UniProt P04150); experiment: Binding to the glucocorticoid receptor, recombinant receptor in Sf9 cytosol, vs [3H]-dexamethasone; details: cytosol of Sf9 cells, [3H]-dexamethasone as reference
T1 construct: made in house; host or cells: Sf9 cells infected with recombinant baculovirus (cytosol preparation)
T1 sequence (P04150 1-777): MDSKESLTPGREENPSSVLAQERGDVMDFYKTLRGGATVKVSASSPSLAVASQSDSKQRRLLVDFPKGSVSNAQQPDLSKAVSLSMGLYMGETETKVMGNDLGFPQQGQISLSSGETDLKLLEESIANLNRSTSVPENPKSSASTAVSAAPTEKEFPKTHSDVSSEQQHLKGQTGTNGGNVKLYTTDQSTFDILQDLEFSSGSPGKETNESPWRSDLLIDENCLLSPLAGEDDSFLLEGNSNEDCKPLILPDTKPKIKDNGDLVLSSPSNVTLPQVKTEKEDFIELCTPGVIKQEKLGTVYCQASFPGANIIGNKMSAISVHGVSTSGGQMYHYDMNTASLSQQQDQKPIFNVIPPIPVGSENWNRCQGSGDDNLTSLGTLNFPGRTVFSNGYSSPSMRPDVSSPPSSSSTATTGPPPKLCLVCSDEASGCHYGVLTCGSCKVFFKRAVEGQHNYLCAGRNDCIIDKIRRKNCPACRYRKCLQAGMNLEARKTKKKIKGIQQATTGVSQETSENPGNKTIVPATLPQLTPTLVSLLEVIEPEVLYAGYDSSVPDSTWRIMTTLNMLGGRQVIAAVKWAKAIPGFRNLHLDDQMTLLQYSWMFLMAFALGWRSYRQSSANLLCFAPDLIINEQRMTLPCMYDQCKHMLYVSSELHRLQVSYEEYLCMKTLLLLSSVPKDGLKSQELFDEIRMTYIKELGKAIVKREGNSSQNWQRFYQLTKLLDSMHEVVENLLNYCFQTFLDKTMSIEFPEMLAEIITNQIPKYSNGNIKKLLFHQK
Description: (§1) The binding of the substances to the glucocorticoid receptor (GR) and other steroid-hormone receptors (mineral corticoid receptor (MR), progesterone receptor (PR) and androgen receptor (AR)) is examined with the aid of recombinantly produced receptors. Cytosol preparations of Sf9 cells, which had been infected with recombinant baculoviruses that code for the GR, are used for the binding studies. In comparison to the reference substance [^3H]-dexamethasone, the substances show a high affinity to the GR.

[2] = biological target: T2, progesterone receptor (PR) (Homo sapiens, UniProt P06401); experiment: Binding to the progesterone receptor, recombinantly produced receptor
T2 construct: made in house
T2 sequence (P06401 1-933): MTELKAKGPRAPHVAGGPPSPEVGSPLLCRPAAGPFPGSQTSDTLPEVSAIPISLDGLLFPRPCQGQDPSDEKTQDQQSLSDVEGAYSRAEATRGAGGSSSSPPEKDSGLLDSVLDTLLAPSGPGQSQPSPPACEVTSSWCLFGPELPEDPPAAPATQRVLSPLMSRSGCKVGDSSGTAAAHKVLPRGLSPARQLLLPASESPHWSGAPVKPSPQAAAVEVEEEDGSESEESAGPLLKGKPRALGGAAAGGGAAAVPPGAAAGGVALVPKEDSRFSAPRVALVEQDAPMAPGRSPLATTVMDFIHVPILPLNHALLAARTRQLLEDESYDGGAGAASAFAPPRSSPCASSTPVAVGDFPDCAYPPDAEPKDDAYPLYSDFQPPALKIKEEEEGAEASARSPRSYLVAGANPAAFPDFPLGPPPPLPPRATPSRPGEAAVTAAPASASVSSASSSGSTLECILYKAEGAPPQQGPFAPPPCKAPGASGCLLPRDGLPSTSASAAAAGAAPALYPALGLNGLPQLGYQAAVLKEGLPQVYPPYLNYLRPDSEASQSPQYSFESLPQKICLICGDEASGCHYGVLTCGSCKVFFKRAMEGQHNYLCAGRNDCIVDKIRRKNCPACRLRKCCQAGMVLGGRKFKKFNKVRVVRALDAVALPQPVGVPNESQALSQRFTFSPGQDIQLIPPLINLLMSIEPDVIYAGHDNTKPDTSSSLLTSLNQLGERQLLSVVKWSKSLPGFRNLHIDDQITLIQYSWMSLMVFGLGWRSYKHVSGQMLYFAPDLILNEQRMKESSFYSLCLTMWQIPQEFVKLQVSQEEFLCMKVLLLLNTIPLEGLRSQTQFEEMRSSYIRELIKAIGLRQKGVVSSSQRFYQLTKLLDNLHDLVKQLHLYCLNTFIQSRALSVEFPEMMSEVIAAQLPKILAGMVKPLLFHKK
Description: as §1

[3] = test system: cytokine IL-8 secretion, human monocyte cell line THP-1; experiment: Inhibition of LPS-triggered IL-8 secretion in THP-1 cells (ELISA); assay type: cell-based
Method: The concentration of the cytokines was determined in the supernatant by means of commercially available ELISA kits.

IC50 [1]: 36 nM
IC50 [2]: > 1000 nM
IC50 ([3]; Homo sapiens, LPS-triggered IL-8 secretion, THP-1, ELISA of supernatant, read-out: IC50(IL8)): 130 nM
SMILES: Cc1ncc2c(NC3c4ccc(F)c(O)c4C(C)C(C)C3(O)C(F)(F)F)cc(F)cc2n1 (racemic) [Example 3, 2-Fluoro-5-[(7-fluoro-2-methylquinazolin-5-yl)amino]-5,6,7,8-tetrahydro-7,8-dimethyl-6-(trifluoromethyl)naphthalene-1,6-diol]
efficiency relative to [3H]-dexamethasone as a standard ([3]; IL-8 inhibition, THP-1, LPS): 80%
